Series [1] is described as follows: Acute oral toxicity test in rats. The note with it: rat, in vivo, single oral dose in 0.5% methyl cellulose, read-out: lethal dose (LD50) for oral administration. Here is the method: In this test six-week old SPF SD rats were used with two rats assigned to each group. The compounds of examples 1, 2, 3, 5, 7, 8, 9, 10, 13, 14, 15, 19, 22, 23, 24, 25, 26, 28, 29, 30, 31, 32, 33, 34, 35, 36, 37, 38, 39, 40, 41, 44, 46, 47, 48, 49, 51, 52, 57, 58, 60, 62, 64, 67, 68, 69, 71 and 72 were suspended in 0.5% methyl cellulose, respectively, and administered orally at a single dose of 1 g/kg using a ball-tipped needle. The dosing volume was 10 ml/kg. […] All survivors at the end of the observation period underwent laparotomy under ether anesthesia and the blood samples were taken from the abdominal aorta for hematological tests and biochemical analysis. After sacrificing the animals, autopsy was performed for macroscopic observation of the organs and tissues. Tissue samples of vital organs from macroscopic legion were removed and fixed in 10% neutral buffered formalin solution, then processed by standard procedures for histopathology and examined under light microscope. There were no significant changes in clinical symptoms, body weight and mortalities. Also in hematology, serum chemistry parameters and macroscopic observation, no drug-related changes were observed.

The subject of series [2] is rat aorta. The series is described as follows: Vasodilation effects on isolated blood vessels of rats (methoxamine-constricted aortic rings). The format is cell-based. To be noted: isolated rat aorta constricted with methoxamine (3 uM); read-out: Vasodilation Activity (in Vitro, rat aorta) (IC50). An excerpt: Male Sprague-Dawly rats (350-450 g, obtained from the Experimental Animal Team of the Korea Research Institute of Chemical Technology) were knocked unconscious by hitting the occipital region, sacrificed by cervical dislocation, and underwent thoracotomy. After being quickly removed, the thoracic aorta was deprived of the adipose tissue and cut into aortic rings of 3 mm width. The aorta was lightly rubbed with a modified Krebs Henseleit buffer (Physiological Salt Solution, PSS) soaked cotton club to remove the inner epithelial layer therefrom. While being suspended in an organ bath containing a physiological buffer, the vascular tissue was allowed to equilibrate under a resting tension of 2 g and then, stand for 1 hour at 37 °C for stabilization with a supply of a carbogen consisting of 95% O2-5% CO2.
Thereafter, the vascular tissue was constricted with 10^-5 M phenylephrine and washed several times with PSS and this procedure was repeated again to ensure the stable reacivity of vascular smooth muscle to repetitive constriction/dilatation.
In addition, 3x10^-6 M methoxamine was used to induce an intensive constriction in the vascular smooth muscle. When the vasoconstriction induced by the methoxamine reached and maintained a maximum, test compounds and controls were cumulatively added to the organ baths in concentrations of 1, 3, 10 and 30 uM so as to induce vasodilatation. As for the controls, they were Cromakalim and BMS-180448 (the compounds of the chemical formula 2), both known to be the first generation KATP activator with potent vasodilatation and cardioprotection effects.
Following the addition of the drugs, the change in the maximal constriction induced by methoxamine was calculated to plot a concentration-dilation response curve. Through a linear regression analysis, IC50, the drug concentration at which the vascular tissue is 50% dilated, was obtained for each drug.

Series [3] deals with ischemic heart models of rats. The series is described as follows: Heart protective (anti-ischemic) activity in ischemic heart models of anesthetized rats. The note with it: 45 min occlusion, 90 min reperfusion. The format is in vivo. The procedure: Male rats (350-450 g, obtained from the Experimental Animal Team of the Korea Research Institute of Chemical Technology) were anesthetized by the intraperitoneal injection of pentobarbital at a dose of 75 mg/kg. After trachetomy, the rats were rendered to respire artificially at a rate of 60/min with a stroke volume of 10 ml/kg. Cannulars were inserted into the fermoral vein and the fermoral artery and used for drug administration and blood pressure measurement, respectively.
In the ischemic myocardium damage models, the body temperature has an important influence on the results. To avoid the change in the body temperature, a body temperature measuring probe was inserted into the rectum of each rat and the body temperature was constantly kept at 37 °C with the aid of a homeothermic blanket control unit.
Afterwards, during testing, a continuous measurement was made of the mean arterial blood pressures and heart rates from the rats. For the measurement of the blood pressure, a pressure transducer, such as that manufactured by Grass Ins., MA, U.S.A., identified as Model Statham P23XL, was used. The heart rate was measured by a tachometer, such as that manufactured by Gould Inc., OH, U.S.A., identified as Biotachometer. In addition, all of the changes occurring were continuously recorded through the Gould 2000 chart recorder, manufactured by Gould Inc.
The left coronary artery was occluded according to the Selye H. method as follows. The rats underwent a left thoracotomy operation for partial opening of the chest and the right-side chest was pressurized by the middle finger of the left hand to push the heart out. Immediately after the left anterior descending coronary artery hereinafter referred to as (LAD) was carefully stitched using a suture needle with 5-0 silk ligature, the heart was then repositioned in the thoracic cavity while both ends of the ligature were situated outside. The opposite ligature ends were passed through a PE tube (PE100, 2.5 cm) and allowed to stand loose for 20 min for stabilization. Via the cannula inserted into the femoral vein, vehicles or drugs were administered into the rats which were rendered to stand for 30 min in order to sufficiently elicit the efficacies of the drugs. BMS-180448 was used as a control drug and the i.v.administration dose was 0.3 mg/kg for all test drugs of interest and the control drug.
Next, the PE tube which had the doubled strands of the ligature passed therethrough was pushed toward the heart and then, set upright by tightly pulling end regions of the ligature with a hemostatic pincette while pressing the coronary artery. The PE tube was allowed to stand for 45 min for the occlusion of the coronary artery, followed by the removal of the hemostatic pincette and then, by the reperfusion for 90 min.
After the reocclusion of the coronary artery in accordance with the above procedure, the rats were administered with 2 ml of a 1% Evans blue through an intravenous route. Subsequently, an excess of pentobarbital was intravenously injected to kill the rats, after which the heart was removed and then, deprived of the right ventricle and both atria. The left ventricle was cut horizontally to the heart apex into 5 or 6 slices which were weighed. From the surface of each slice, images were input with the aid of a Hi-scope into a computer installed with an image analyzing program (Image Pro Plus). From the images input into the computer, the area of the normal blood stream tissue region which appeared blue in a computer monitor and the area which appeared colorless were measured. The percentage of the colorless area to the total area of each slice was calculated and multiplied by the weight of each slice to determine the area at risk (AAR) of each slice. […]

In series [4] the test system is A7r5. The series is described as follows: Inhibition of intracellular ROS induced by H2O2 (H2DCFDA) in A7r5. The format is cell-based. The note with it: Rattus norvegicus. Here is the method:
Measurement of intracellular ROS (Reactive Oxygen Species) was determined using H2DCFDA (2',7'-dichlorodihydrofluorescein diacetate, Molecular Probes, Eugene, OR, USA). H2DCFDA is a non-polar compound that readily diffused into cells, where it is hydrolyzed by intracellular esterase to polar derivative H2DCF (2',7'-dichlorodihydrofluorescein) which can not cross the cell membrane, and thereby trapped within the cell. H2DCF is low-fluorescent, but converted to high-fluorescent DCF (2',7'-dichlorofluorescein) by intracellular ROS. Therefore, the intracellular ROS formation can be determined from the amount of converted DCF. HUVEC (Human umbilical Vascular Endothelial Cells) or A7r5 (Rat thoracic aorta smooth muscle cells) were used. HUVEC were cultured in Kaighn's F12K medium supplemented with 10% heat-inactivated FBS, 0.1 mg/ml heparin sodium, 0.03-0.05 mg/ml ECGS (Endothelial cell growth supplement) and 1% antibiotics, and A7r5 were cultured in DMEM supplemented with 10% heat inactivated FBS and 1% antibiotics. To measure the intracellular ROS, HUVEC or A7r5 were preincubated for 30 min in the presence of test compounds (10^-7-10^-5 M). Thereafter, cells were stimulated with H2O2 (10^-6 and 10^-5 M for 20 min), and then incubated in the dark for 2 hr at 37 °C in 50 mM phosphate buffer (pH 7.4) containing 5 uM H2DCFDA. The quantity of DCF fluorescence (485 nm excitation, 530 nm emission) was measured using Fluorescence plate reader (FL600, Biotek Instruments).

Series [5] relates to angiogenesis induced by Angiotensin II in Sprague-Dawley rats. The series can be described thus: Suppression of Angiotensin II induced angiogenesis in implanted sponge (99mTc-DTPA clearance). The format is in vivo. To be noted: Control AII (100nmol) alone, no test drug.

As to `COC(OC)[C@@]1(C)Oc2ccc(NC(C)=O)cc2[C@@H](NC(=NC#N)NCc2ccccc2)[C@@H]1O` [Example 41], the LD50 in series [1] is greater than 1000 mg/kg. For the same molecule, the IC50 in series [2] is greater than 30 µM. The “Anti-ischemic Activity (in vivo, rats) (0.3 mg/kg i.v.) IZ/AAR (%)” value in series [3] was determined as 30.25%.

Turning to `CC(C)(Sc1cc(C(C)(C)C)c(O)c(C(C)(C)C)c1)Sc1cc(C(C)(C)C)c(O)c(C(C)(C)C)c1` [Probucol, reference compound], the inhibition at 10 µM in series [4] (A7r5, Conc. 10^-5 M, read-out: Inhibition (%) H2O2 (10^-6M)) amounted to 185%. Besides, the inhibition at 1 µM in series [4] (A7r5, Conc. 10^-6 M) is 184%. The inhibition at 0.1 µM in series [4] (A7r5, Conc. 10^-7 M, read-out: Inhibition (%) H2O2 (10^-6M)) is 72%.

“Angiotensin II [AII, reference compound]”: in series [5], the “Clearance of ^99mTC (%)” value came out at 44.71%.
